# Assay results reported in paper PMC12362582, “Linker Methylation as a Strategy to Enhance PROTAC Oral Bioavailability: Insights from Molecular Properties and Conformational Analysis” (Journal of Medicinal Chemistry, 2025).
# Like-named read-outs stand apart in the source and are kept apart here.
# Experiments:
# [1] = Chamelogk chromatographic chameleonicity (PLRP-S column); type: physicochemical; details: Exp. log k'100 – Ext. log k'100, PLRP-S column
# Source text: (§1) Chameleonicity was monitored by Chamelogk, a recent chromatographic descriptor able to capture environment-dependent conformational changes by monitoring different mobile phase compositions on the PLRP-S column. All PROTACs behave as strong chameleons (Chamelogk > 0.6). Additionally, we calculated the EPSA-to-TPSA ratio (ETR), a recently proposed index for polarity masking. The ETR values remained consistently around 0.7 across the series, supporting the notion that conformational effects contribute uniformly to the polarity profiles of the analyzed PROTACs.
# Using the PLRP-S column, we assessed the RT of each PROTAC in the data set at four different mobile phase conditions (50, 60, 70 and 100% MeCN) and calculated the capacity factor at each mobile phase composition. First, we constructed a linear trend using the first three mobile phase conditions (50, 60, and 70% MeCN) that respected a linear behavior and calculated the extrapolated value at 100% MeCN (Ext. log k′100). Chamelogk was then calculated with the following equation: Chamelogk = Exp. log k′100 – Ext. log k′100.
# [2] = log kW IAM (IAM.PC.DD2 column) and derived Δlog kW IAM polarity; type: physicochemical; details: for log kW^IAM: IAM.PC.DD2 column, extrapolated, pH 7; for Δlog kW^IAM: log kW IAM – clog kW IAM (clog = 0.92*BRlogD – 1.03)
# Method: (§2) Lipophilicity was assessed using three chromatographic descriptors, each simulating distinct aspects of membrane environments. BRlogD is a surrogate of the octanol/water distribution coefficient (log D oct) reflecting a general partitioning across biological membranes. Log k W ^IAM implements an Immobilized Artificial Membrane (IAM) column which provides a lipophilicity index in an environment resembling the membrane phospholipids. Finally, log k′80 PLRP-S reflects retention in a hydrophobic polymeric column environment, mimicking the nonpolar core of lipid bilayers, and acts as a surrogate for the toluene/water partition coefficient (log D tol). Lipophilicity remained within a moderate range across all systems.
# (§3) Polarity was quantified by Δlog k W ^IAM, a descriptor obtained from the experimental log k W ^IAM and BRlogD. In addition, we also measured EPSA (Table S2), another polarity descriptor based on a supercritical fluid chromatographic (SFC) system widely used in drug discovery.
# (§4) All chromatographic measurements were performed using the Thermo Scientific Inc. HPLC DIONEX Ultimate 3000 connected to an RS diode array and the Chromeleon 7.2.10 software (www.thermofisher.com). 1.5 mL HPLC vials, 9 mm PP screw caps, and high-performance ergonomic single-channel variable volume pipettors from VWR Signature were used. A Eutech pH Meter 2700 was used to regulate the pH of each buffer and sample (www.fishersci.com). For all the chromatographic descriptors, the mobile phase consisted of an acetonitrile solution (ACN) and 20 mM AAB, pH 7. Moreover, 10 μL was set as the volume of injection of compound concentrations ranging from 50 to 100 μg/mL in ACN/buffer mixtures. One mL/min was chosen as the isocratic flow rate and 30 °C as the oven temperature. However, each chromatographic system (RP) had its own conditions:
# This descriptor required the use of an IAM.PC.DD2 (300 Å, 10 μm, 10 cm × 4.6 mm) column from REGIS. The organic solvent of the eluent, ACN, was modified at various percentages (from 10 to 50%, v/v) and the retention times were measured. Next, the capacity factor (log k′) values were calculated as described elsewhere and the equation represented by the five was obtained. Lastly the extrapolated value at 100% ACN (0% aqueous buffer) or log k w ^IAM was obtained. Caffeine, carbamazepine, ketoprofen, theobromine, and toluene were checked daily as gold standards. ,
# This polarity descriptor was calculated using the equation Δlog k w ^IAM = log k w ^IAM – clog k w ^IAM. Clog k w ^IAM, defined as the log k w ^IAM for neutral compounds with PSA = 0, has been correlated to BRlogD by our group with the equation: clog k w ^IAM= 0.92*BRlogD – 1.03.
# [3] = log k'80 PLRP-S chromatographic lipophilicity; type: physicochemical; details: 80% ACN / 20% 20 mM ammonium acetate, pH 7.0
# Method: Molecular properties have been quantified with physicochemical descriptors of ionization, lipophilicity, polarity and chameleonicity (see Methods). First, ionization of the 11 PROTACs (basic center, Figure a) was analyzed by potentiometry. However, standard pK a measurements in water were limited by solubility and precipitation issues (data not shown). Therefore, to assess the dominant species at physiological pH we adopted a chromatographic method previously published by some of us. Briefly, we monitored the trend of the capacity factor named log k′80 PLRP-S at different pHs (acid-neutral-basic). […] The most neutral feature of the considered PROTACs in in line with the main role played by the neutral species in crossing membranes.
# as §2, §4
# Log k′80 PLRP-S and Chamelogk, on the other hand, were measured using the PLRP-S polymeric reversed-phase column (100 Å, 5 μm, 50 × 4.6 mm) from Agilent (www.agilent.com). The assessment of log k′80 PLRP-S involved the measurement and calculation of the capacity factor of each sample at an eluent composition of 80% ACN and 20% 20 mM ammonium acetate at pH 7.0. In addition, acetone, caffeine, phenol and a mixture of uracile, acetophenone and toluene were used as gold standards. Moreover, log k′80 PLRP-S was also assessed at different pHs (2, 7 and 12) using 0.1% formate buffer, 0.1% ammonium acetate, and 10 mM triethylamine.
# [4] = Bidirectional Caco-2 permeability and efflux ratio assay; type: in vitro ADME; details: human
# [5] = EPSA (supercritical fluid chromatography) and EPSA-to-TPSA ratio; type: physicochemical; details: for EPSA: supercritical fluid chromatographic (SFC) system, SFC-based polarity descriptor
# Source text: as §3, §1
# [6] = with Zosuquidar (P-gp inhibitor), concentration not given, Caco-2, in the presence of a Pgp inhibitor (Zosuquidar), read-out: ER (+Pgp inhibitor)
# [7] = Caco-2, in the absence of an inhibitor, read-out: ER (Caco-2 efflux ratio)
SMILES,Chamelogk [1],log kW^IAM [2],Δlog kW^IAM [2],Δlog kW^IAM ([2]; listed as A5–4),log k'80 PLRP-S [3],"efflux ratio at 1 μM [4, 6]",ETR (EPSA-to-TPSA ratio) [5],EPSA [5] [A^2],"efflux ratio at 1 μM [4, 7]",Δlog kW^IAM ([2]; listed as A5–1)
Cc1ncsc1-c1ccc([C@@H](CC[C@@H](C)CCN2CCC(c3ccc4c(c3)n(C3CCCC3)c3nc(=O)c5c(Br)cccc5n43)CC2)NC(=O)[C@@H]2C[C@@H](O)CN2C(=O)[C@@H](NC(=O)C2(F)CC2)C(C)(C)C)cc1 [A5-4],>2,3.31,1.8,> 1.5,0.14,0.9,0.73,134,–,–
Cc1ncsc1-c1ccc([C@H](C[C@H](C)CN2CCC(c3ccc4c(c3)n(C3CCCC3)c3nc(=O)c5c(Br)cccc5n43)CC2)NC(=O)[C@@H]2C[C@@H](O)CN2C(=O)[C@@H](NC(=O)C2(F)CC2)C(C)(C)C)cc1 [A3-2],>2,2.21,0.21,–,0.18,0.9,0.68,130,9,–
Cc1ncsc1-c1ccc([C@H](CC[C@@H](C)CCN2CCC(c3ccc4c(c3)n(C3CCCC3)c3nc(=O)c5c(Br)cccc5n43)CC2)NC(=O)[C@@H]2C[C@@H](O)CN2C(=O)[C@@H](NC(=O)C2(F)CC2)C(C)(C)C)cc1 [A5-3],>2,2.38,0.83,–,0.28,1,0.73,133,3.3,–
Cc1ncsc1-c1ccc([C@H](CCCN2CCC(c3ccc4c(c3)n(C3CCCC3)c3nc(=O)c5c(Br)cccc5n43)CC2)NC(=O)[C@@H]2C[C@@H](O)CN2C(=O)[C@@H](NC(=O)C2(F)CC2)C(C)(C)C)cc1 [A3-1],>2,2.01,0.93,–,0.07,1.8,–,133,–,–
Cc1ncsc1-c1ccc([C@H](C[C@@H](C)CN2CCC(c3ccc4c(c3)n(C3CCCC3)c3nc(=O)c5c(Br)cccc5n43)CC2)NC(=O)[C@@H]2C[C@@H](O)CN2C(=O)[C@@H](NC(=O)C2(F)CC2)C(C)(C)C)cc1 [A3-3],>2,2.29,0.26,–,0.32,0.4,0.70,130,5.1,–
Cc1ncsc1-c1ccc([C@H](CC[C@H](C)CCN2CCC(c3ccc4c(c3)n(C3CCCC3)c3nc(=O)c5c(Br)cccc5n43)CC2)NC(=O)[C@@H]2C[C@@H](O)CN2C(=O)[C@@H](NC(=O)C2(F)CC2)C(C)(C)C)cc1 [A5-2],>2,2.37,0.85,–,0.22,1.6,0.73,133,7.5,–
Cc1ncsc1-c1ccc([C@H](CCCCCN2CCC(c3ccc4c(c3)n(C3CCCC3)c3nc(=O)c5c(Br)cccc5n43)CC2)NC(=O)[C@@H]2C[C@@H](O)CN2C(=O)[C@@H](NC(=O)C2(F)CC2)C(C)(C)C)cc1 [A5-1],>2,3.00,1.77,–,0.03,1.6,0.75,136,24.2,> 1.5

# Results, then the compound that gave them:
Chamelogk [1],log kW^IAM [2],Δlog kW^IAM [2],Δlog kW^IAM ([2]; listed as A5–4),log k'80 PLRP-S [3],"efflux ratio at 1 μM [4, 6]",ETR (EPSA-to-TPSA ratio) [5],EPSA [5] [A^2],"efflux ratio at 1 μM [4, 7]",Δlog kW^IAM ([2]; listed as A5–1),SMILES
>2,2.00,–,–,0.11,1.1,0.67,127,31.3,–,Cc1ncsc1-c1ccc([C@H](COC(C)(C)CN2CCC(c3ccc4c(c3)n(C3CCCC3)c3nc(=O)c5c(Br)cccc5n43)CC2)NC(=O)[C@@H]2C[C@@H](O)CN2C(=O)[C@@H](NC(=O)C2(F)CC2)C(C)(C)C)cc1 [B-4]
>2,1.97,0.61,–,0.05,3,0.69,128,–,–,Cc1ncsc1-c1ccc([C@H](COCCN2CCC(c3ccc4c(c3)n(C3CCCC3)c3nc(=O)c5c(Br)cccc5n43)CC2)NC(=O)[C@@H]2C[C@@H](O)CN2C(=O)[C@@H](NC(=O)C2(F)CC2)C(C)(C)C)cc1 [B-1]
>2,2.06,0.58,–,0.08,2.2,0.68,124,23.9,–,Cc1ncsc1-c1ccc([C@H](CO[C@@H](C)CN2CCC(c3ccc4c(c3)n(C3CCCC3)c3nc(=O)c5c(Br)cccc5n43)CC2)NC(=O)[C@@H]2C[C@@H](O)CN2C(=O)[C@@H](NC(=O)C2(F)CC2)C(C)(C)C)cc1 [B-3]
>2,1.92,0.57,–,0.05,1.8,0.68,–,–,–,Cc1ncsc1-c1ccc([C@H](CO[C@H](C)CN2CCC(c3ccc4c(c3)n(C3CCCC3)c3nc(=O)c5c(Br)cccc5n43)CC2)NC(=O)[C@@H]2C[C@@H](O)CN2C(=O)[C@@H](NC(=O)C2(F)CC2)C(C)(C)C)cc1 [B-2]
